Assay results as given in patent publication US20210238139A1, “MODULATORS OF TRYPTOPHAN CATABOLISM” (E-Therapeutics PLC, priority 2018, published 2021).

These molecules were tested on SK-OV-3 cells (assay: Effect of compounds on tryptophan catabolism in SK-OV-3 cell line (inhibition of kynurenine production, LC-MS/MS)). Settings: Homo sapiens, SK-OV-3, 24 h, SK-OV-3 cell line, 24 h incubation, kynurenine in supernatant by LC-MS/MS; read-out: IC50 Ranges (ic50 values for inhibition of Kynurenine production).
Format: cell-based
Method in brief: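 Kynurenine in supernatants quantified by LC-MS/MS after 24 h compound exposure (37 °C; top 30 μM, eight 3-fold steps, duplicate) in DMEM F-12 containing 6 mg/mL L-tryptophan. Cells pre-plated overnight in McCoy's 5A with 10% FBS. Viability checked in parallel by ATP luminescence.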

Row | IC50 | SMILES
1 | 1000 to 5000 nM | O=C(Nc1ccccc1)N(Cc1cccs1)c1ccc(Cl)cc1 [Compound 196, 1-(4-chlorophenyl)-3-phenyl-1-(2-thienylmethyl)urea]
2 | 1000 to 5000 nM | Cc1ccc(N(Cc2cccs2)C(=O)NC2CCCCC2)cc1 [Compound 201, 3-cyclohexyl-1-(p-tolyl)-1-(2-thienylmethyl) urea]
3 | > 5000 nM | O=C(NCc1sccc1Cl)Nc1cccc(Cl)c1 [Compound 204, 1-(3-chlorophenyl)-3-[(3-chloro-2-thienyl)methyl]urea]
4 | 100 to 500 nM | COc1cc(NC(=O)N(Cc2ccc(C)o2)C2CCCC2)ccc1C#N [Compound 205]
5 | 500 to 1000 nM | N#Cc1ccc(NC(=O)N(Cc2ccc3ncoc3c2)C2CCC2)cc1 [Compound 209, 1-(1,3-benzoxazol-6-ylmethyl)-3-(4-cyanophenyl)-1-cyclobutyl-urea]
6 | 1000 to 5000 nM | O=C(Nc1ccc(Cl)cc1)N(Cc1cn2ccncc2n1)C1CCC1 [Compound 212, 3-(4-chlorophenyl)-1-cyclobutyl-1-(imidazo[1,2-a]pyrazin-2-ylmethyl)urea]
7 | < 100 nM | Cc1ccc(CN(C(=O)Nc2ccc(C#N)cc2)C2CCCC2(F)F)o1 (centres unmarked) [Compound 214, 3-(4-cyanophenyl)-1-(2,2-difluorocyclopentyl)-1-[(5-methyl-2-furyl)methyl]urea]
8 | 500 to 1000 nM | Cc1ccc(CN(C(=O)Nc2ccc(C#N)cc2)c2cnn(C)c2)o1 [Compound 218, 3-(4-cyanophenyl)-1-[(5-methyl-2-furyl)methyl]-1-(1-methylpyrazol-4-yl)urea]
9 | 100 to 500 nM | Cc1ccc(CN(C(=O)Nc2ccc(C#N)cc2)C2CCCC2C#N)o1 (centres unmarked) [Compound 219, 1-(2-cyanocyclopentyl)-3-(4-cyanophenyl)-1-[(5-methyl-2-furyl)methyl]urea]
10 | 100 to 500 nM | Cc1ccc(CN(C(=O)Nc2ccc(C#N)cc2)C2CCC(C#N)C2)o1 (centres unmarked) [Compound 224, 1-(3-cyanocyclopentyl)-3-(4-cyanophenyl)-1-[(5-methyl-2-furyl)methyl]urea]
11 | 1000 to 5000 nM | Cc1ccc(CN(C(=O)Nc2ccc(C#N)cc2)c2cncn2C)o1 [Compound 231, 3-(4-cyanophenyl)-1-[(5-methyl-2-furyl)methyl]-1-(3-methylimidazol-4-yl)urea]
12 | < 100 nM | N#Cc1ccc(NC(=O)N(Cc2cc3ccccc3o2)C2CCC2)cc1 [Compound 234, 1-(benzofuran-2-ylmethyl)-3-(4-cyanophenyl)-1-cyclobutyl-urea]

More lines, now with the values behind:

Row | SMILES | IC50
13 | CN(Cc1cccs1)C(=O)Nc1ccc(Cl)c(Cl)c1 [Compound 200, 3-(3,4-dichlorophenyl)-1-methyl-1-(2-thienylmethyl)urea] | 1000 to 5000 nM
14 | COc1ccc(N(Cc2cccs2)C(=O)NC2CCCCC2)cc1 [Compound 202, 3-cyclohexyl-(4-methoxyphenyl)-1-(2-thienylmethyl) urea] | 1000 to 5000 nM
15 | Cc1oc(-c2ccccc2)nc1CNC(=O)Nc1ccccc1 [Compound 203, 1-[(5-methyl-2-phenyl-oxazol-4-yl)methyl]-3-phenyl-urea] | 1000 to 5000 nM
16 | Cc1ccc(CN(C(=O)Nc2ccc(Cl)cc2)C2CCCC2(F)F)o1 (centres unmarked) [Compound 206, 3-(4-chlorophenyl)-1-(2,2-difluorocyclopentyl)-1-[(5-methyl-2-furyl)methyl]urea] | < 100 nM
17 | N#Cc1ccc(NC(=O)N(Cc2cc3ccccn3n2)C2CCC2)cc1 [Compound 207, 3-(4-cyanophenyl)-1-cyclobutyl-1-(pyrazolo[1,5-a]pyridin-2-ylmethyl)urea] | 100 to 500 nM
18 | Cc1ccc(CN(C(=O)Nc2ccc(C#N)cc2)C2CC(F)C2)o1 (centres unmarked) [Compound 208, 3-(4-cyanophenyl)-1-(3-fluorocyclobutyl)-1-[(5-methyl-2-furyl)methyl]urea] | 500 to 1000 nM
19 | N#Cc1ccc(NC(=O)N(Cc2cn3ccccc3n2)C2CCC2)cc1 [Compound 210, 3-(4-cyanophenyl)-1-cyclobutyl-1-(imidazo[1,2-a]pyridin-2-ylmethyl)urea] | 1000 to 5000 nM
20 | N#Cc1ccc(NC(=O)N(Cc2cn3ccncc3n2)C2CCC2)cc1 [Compound 211, 3-(4-cyanophenyl)-1-cyclobutyl-1-(imidazo[1,2-a]pyrazin-2-ylmethyl)urea] | > 5000 nM
21 | COC1CC(N(Cc2ccc(C)o2)C(=O)Nc2ccc(C#N)cc2)C1 (centres unmarked) [Compound 216, 3-(4-cyanophenyl)-1-(3-methoxycyclobutyl)-1-[(5-methyl-2-furyl)methyl]urea] | < 100 nM
22 | Cn1ncc2ccc(CN(C(=O)Nc3ccc(C#N)cc3)C3CCC3)cc21 [Compound 217, 3-(4-cyanophenyl)-1-cyclobutyl-1-[(1-methylindazol-6-yl)methyl]urea] | 100 to 500 nM
23 | Cc1ccc(CN(C(=O)Nc2ccc(C#N)cc2)c2ccn(C)n2)o1 [Compound 221, 3-(4-cyanophenyl)-1-[(5-methyl-2-furyl)methyl]-1-(1-methylpyrazol-3-yl)urea] | 500 to 1000 nM
24 | Cc1ccc(CN(C(=O)Nc2ccc(Cl)cc2)C2CC(F)C2)o1 (centres unmarked) [Compound 222, 3-(4-chlorophenyl)-1-(3-fluorocyclobutyl)-1-[(5-methyl-2-furyl)methyl]urea] | 100 to 500 nM
25 | N#Cc1ccc(NC(=O)N(Cc2ccc3ocnc3c2)C2CCC2)cc1 [Compound 223, 1-(1,3-benzoxazol-5-ylmethyl)-3-(4-cyanophenyl)-1-cyclobutyl-urea] | 100 to 500 nM
26 | Cc1ccc(CN(C(=O)Nc2ccc(Cl)cc2)c2cnn(C)c2)o1 [Compound 225, 3-(4-chlorophenyl)-1-[(5-methyl-2-furyl)methyl]-1-(1-methylpyrazol-4-yl)urea] | 100 to 500 nM
27 | Cc1ccc(CN(C(=O)Nc2ccc(Cl)cc2)c2ccn(C)n2)o1 [Compound 226, 3-(4-chlorophenyl)-1-[(5-methyl-2-furyl)methyl]-1-(1-methylpyrazol-3-yl)urea] | 100 to 500 nM
28 | Cc1ccc(CN(C(=O)Nc2ccc(Cl)cc2)C2CCCC2C#N)o1 (centres unmarked) [Compound 227, 3-(4-chlorophenyl)-1-(2-cyanocyclopentyl)-1-[(5-methyl-2-furyl)methyl]urea] | < 100 nM
29 | Cc1ccc(CN(C(=O)Nc2ccc(C(F)(F)F)nc2)C2CCCC2)o1 [Compound 228, 1-cyclopentyl-1-[(5-methyl-2-furyl)methyl]-3-[6-(trifluoromethyl)-3-pyridyl]urea] | 100 to 500 nM
30 | N#Cc1ccc(NC(=O)N(Cc2nc3ccccc3s2)C2CCC2)cc1 [Compound 229, 1-(1,3-benzothiazol-2-ylmethyl)-3-(4-cyanophenyl)-1-cyclobutyl-urea] | 100 to 500 nM
31 | Cc1ccc(CN(C(=O)Nc2ccc(C#N)cc2)c2c(C)noc2C)o1 [Compound 230, 3-(4-cyanophenyl)-1-(3,5-dimethylisoxazol-4-yl)-1-[(5-methyl-2-furyl)methyl]urea] | 100 to 500 nM
32 | O=C(Nc1ccc(Cl)cc1)N(Cc1ccc2ocnc2c1)C1CCC1 [Compound 232, 1-(1,3-benzoxazol-5-ylmethyl)-3-(4-chlorophenyl)-1-cyclobutyl-urea] | < 100 nM
33 | Cc1ccc(CN(C(=O)Nc2ccc(C#N)cc2)c2nccn2C)o1 [Compound 233, 3-(4-cyanophenyl)-1-[(5-methyl-2-furyl)methyl]-1-(1-methylimidazol-2-yl)urea] | 1000 to 5000 nM

Same assay, conditions: SK-OV-3 cell line, 24 h incubation, kynurenine in supernatant by LC-MS/MS; read-out: IC50 Ranges (ic50 values for inhibition of Kynurenine production)

Row | IC50 | SMILES
34 | 500 to 1000 nM | Cc1ccc(CN(C(=O)Nc2ccc(Cl)cc2)c2cncn2C)o1 [Compound 193, 3-(4-chlorophenyl)-1-[(5-methyl-2-furyl)methyl]-1-(3-methylimidazol-4-yl)urea]
35 | 100 to 500 nM | O=C(Nc1ccccc1)N(Cc1cccs1)C1CCCC1 [Compound 195, 1-cyclopentyl-3-phenyl-1-(2-thienylmethyl)urea]
